BindingDB's records for doi:10.1111/j.1476-5381.1994.tb14064.x (Glaxo Group Research, 1994)

How the values were obtained:
Mu-type opioid receptor = Mu-type opioid receptor (Rattus norvegicus, UniProt P33535)
Substance-P receptor = Substance-P receptor (Rattus norvegicus, UniProt P14600)
Adenosine receptor A2a = Adenosine receptor A2a (Rattus norvegicus, UniProt P30543)
[1] = target: Gamma-aminobutyric acid (GABA) B receptor 1 (Rattus norvegicus, UniProt Q6MFX8)
[2] = target: Kappa-type opioid receptor (Rattus norvegicus, UniProt P34975)
D(2) dopamine receptor = D(2) dopamine receptor (Rattus norvegicus, UniProt P61169)
Chain of D(2) dopamine receptor (P61169 whole entry): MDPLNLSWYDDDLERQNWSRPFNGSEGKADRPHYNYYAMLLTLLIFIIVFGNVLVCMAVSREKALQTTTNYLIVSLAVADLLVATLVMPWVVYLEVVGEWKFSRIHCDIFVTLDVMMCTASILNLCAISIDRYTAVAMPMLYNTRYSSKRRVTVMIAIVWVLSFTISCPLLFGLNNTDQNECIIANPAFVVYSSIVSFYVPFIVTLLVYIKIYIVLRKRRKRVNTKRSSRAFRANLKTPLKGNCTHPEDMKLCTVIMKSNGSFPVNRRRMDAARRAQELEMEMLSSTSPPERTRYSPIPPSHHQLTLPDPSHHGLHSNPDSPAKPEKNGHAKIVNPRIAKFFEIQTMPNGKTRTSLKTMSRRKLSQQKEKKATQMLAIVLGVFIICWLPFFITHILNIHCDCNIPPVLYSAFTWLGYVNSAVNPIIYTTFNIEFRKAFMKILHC

Vasopressin V2 receptor = Vasopressin V2 receptor (Rattus norvegicus, UniProt Q00788)
[3] = target: Beta-1 adrenergic receptor (Rattus norvegicus, UniProt P18090)
Chain of Beta-1 adrenergic receptor (P18090 whole entry): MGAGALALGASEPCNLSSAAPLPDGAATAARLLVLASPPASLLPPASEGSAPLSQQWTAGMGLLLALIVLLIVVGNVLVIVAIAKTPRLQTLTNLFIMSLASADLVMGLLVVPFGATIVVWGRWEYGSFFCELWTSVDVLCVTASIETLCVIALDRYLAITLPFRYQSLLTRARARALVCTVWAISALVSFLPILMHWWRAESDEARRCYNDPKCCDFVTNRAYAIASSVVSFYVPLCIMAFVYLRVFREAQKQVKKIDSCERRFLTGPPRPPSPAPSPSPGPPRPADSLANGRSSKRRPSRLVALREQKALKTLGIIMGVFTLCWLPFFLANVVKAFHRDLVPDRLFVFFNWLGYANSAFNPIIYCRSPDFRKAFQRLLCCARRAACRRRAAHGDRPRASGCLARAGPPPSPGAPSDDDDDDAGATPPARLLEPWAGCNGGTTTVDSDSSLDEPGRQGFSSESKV

[4] = target: Endothelin-converting enzyme 1 (Rattus norvegicus, UniProt P42893)
Chain of Endothelin-converting enzyme 1 (P42893 whole entry): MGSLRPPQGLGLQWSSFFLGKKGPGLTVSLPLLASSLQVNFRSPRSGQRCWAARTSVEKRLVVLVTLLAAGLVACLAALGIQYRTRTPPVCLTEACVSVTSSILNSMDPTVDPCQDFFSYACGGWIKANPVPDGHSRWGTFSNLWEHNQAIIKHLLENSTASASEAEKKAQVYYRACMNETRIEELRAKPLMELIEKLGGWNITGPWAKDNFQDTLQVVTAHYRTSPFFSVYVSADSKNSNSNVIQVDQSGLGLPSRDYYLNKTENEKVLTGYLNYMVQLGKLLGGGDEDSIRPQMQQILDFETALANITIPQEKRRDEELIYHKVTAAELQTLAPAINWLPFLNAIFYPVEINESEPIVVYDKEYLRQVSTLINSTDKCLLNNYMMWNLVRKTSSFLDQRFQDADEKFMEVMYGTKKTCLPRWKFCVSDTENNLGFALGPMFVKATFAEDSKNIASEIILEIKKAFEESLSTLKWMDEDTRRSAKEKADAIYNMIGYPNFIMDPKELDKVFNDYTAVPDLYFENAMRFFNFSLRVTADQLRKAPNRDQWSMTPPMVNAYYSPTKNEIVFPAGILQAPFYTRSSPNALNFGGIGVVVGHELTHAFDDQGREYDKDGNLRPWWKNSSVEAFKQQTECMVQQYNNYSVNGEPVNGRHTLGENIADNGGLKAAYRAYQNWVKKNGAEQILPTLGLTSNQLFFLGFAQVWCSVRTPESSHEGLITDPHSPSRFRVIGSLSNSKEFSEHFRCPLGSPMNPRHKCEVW

Adenosine receptor A1 = Adenosine receptor A1 (Rattus norvegicus, UniProt P25099)
[5] = target: Alpha-1A adrenergic receptor (Rattus norvegicus, UniProt P43140)
Chain of Alpha-1A adrenergic receptor (P43140 whole entry): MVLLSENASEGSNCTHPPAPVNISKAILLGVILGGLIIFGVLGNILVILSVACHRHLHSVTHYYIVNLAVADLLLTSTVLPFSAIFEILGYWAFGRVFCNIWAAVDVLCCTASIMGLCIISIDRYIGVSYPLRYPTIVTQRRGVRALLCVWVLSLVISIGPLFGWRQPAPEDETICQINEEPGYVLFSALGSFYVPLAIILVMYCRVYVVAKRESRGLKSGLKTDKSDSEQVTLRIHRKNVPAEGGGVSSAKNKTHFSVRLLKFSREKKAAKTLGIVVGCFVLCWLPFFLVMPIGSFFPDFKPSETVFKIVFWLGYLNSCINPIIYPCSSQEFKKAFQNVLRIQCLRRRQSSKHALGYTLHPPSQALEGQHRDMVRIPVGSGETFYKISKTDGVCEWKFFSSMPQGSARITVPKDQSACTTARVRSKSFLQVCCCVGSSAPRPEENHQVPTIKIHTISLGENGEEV

[6] = target: Gamma-aminobutyric acid receptor subunit alpha-1 (Rattus norvegicus, UniProt P62813)
Chain of Gamma-aminobutyric acid receptor subunit alpha-1 (P62813 whole entry): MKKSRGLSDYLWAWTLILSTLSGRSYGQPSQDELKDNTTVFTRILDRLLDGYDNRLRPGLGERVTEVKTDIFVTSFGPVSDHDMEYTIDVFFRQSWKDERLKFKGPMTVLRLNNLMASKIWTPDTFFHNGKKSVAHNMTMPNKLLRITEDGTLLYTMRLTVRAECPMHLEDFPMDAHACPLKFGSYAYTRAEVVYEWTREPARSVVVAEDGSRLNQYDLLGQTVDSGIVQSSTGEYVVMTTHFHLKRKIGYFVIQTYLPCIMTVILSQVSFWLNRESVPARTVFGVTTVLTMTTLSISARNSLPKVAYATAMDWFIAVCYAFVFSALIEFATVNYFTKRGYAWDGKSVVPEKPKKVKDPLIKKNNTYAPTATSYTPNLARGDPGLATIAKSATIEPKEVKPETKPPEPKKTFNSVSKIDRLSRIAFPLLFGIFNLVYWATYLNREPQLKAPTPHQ

[7] = target: 5-hydroxytryptamine receptor 2C (Sus scrofa, UniProt K7GSR7)
[8] = target: 5-hydroxytryptamine receptor 3A (Rattus norvegicus, UniProt P35563)
Chain of 5-hydroxytryptamine receptor 3A (P35563 whole entry): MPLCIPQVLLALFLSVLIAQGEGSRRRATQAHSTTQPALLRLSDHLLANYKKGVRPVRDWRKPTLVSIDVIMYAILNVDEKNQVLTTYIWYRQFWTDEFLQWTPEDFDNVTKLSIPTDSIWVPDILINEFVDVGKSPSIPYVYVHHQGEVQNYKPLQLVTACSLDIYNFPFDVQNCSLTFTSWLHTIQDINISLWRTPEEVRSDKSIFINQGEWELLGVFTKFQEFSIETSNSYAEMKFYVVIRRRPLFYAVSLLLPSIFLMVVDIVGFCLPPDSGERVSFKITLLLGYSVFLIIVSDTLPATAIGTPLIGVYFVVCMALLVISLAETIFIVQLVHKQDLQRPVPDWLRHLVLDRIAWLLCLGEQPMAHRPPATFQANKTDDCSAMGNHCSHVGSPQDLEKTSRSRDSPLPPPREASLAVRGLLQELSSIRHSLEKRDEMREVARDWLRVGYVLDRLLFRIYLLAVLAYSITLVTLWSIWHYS

[9] = target: Alpha-2C adrenergic receptor (Rattus norvegicus, UniProt P22086)
[10] = target: Beta-2 adrenergic receptor (Cavia porcellus, UniProt Q8K4Z4)
B1 bradykinin receptor = B1 bradykinin receptor (Rattus norvegicus, UniProt P97583)
[11] = target: Bombesin receptor subtype-3 (Rattus norvegicus, UniProt Q8K418)
[12] = target: Calcitonin gene-related peptide 1 (Rattus norvegicus, UniProt P01256)
Chain of Calcitonin gene-related peptide 1 (P01256 83-119 limits assumed): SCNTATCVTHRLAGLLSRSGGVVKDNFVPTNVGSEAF

[13] = target: Gastrin/cholecystokinin type B receptor (Rattus norvegicus, UniProt P30553)
[14] = target: Muscarinic acetylcholine receptor M2 (Rattus norvegicus, UniProt P10980)
[15] = target: Muscarinic acetylcholine receptor M1 (Rattus norvegicus, UniProt P08482)
[16] = target: Muscarinic acetylcholine receptor M3 (Rattus norvegicus, UniProt P08483)
Chain of Muscarinic acetylcholine receptor M3 (P08483 whole entry): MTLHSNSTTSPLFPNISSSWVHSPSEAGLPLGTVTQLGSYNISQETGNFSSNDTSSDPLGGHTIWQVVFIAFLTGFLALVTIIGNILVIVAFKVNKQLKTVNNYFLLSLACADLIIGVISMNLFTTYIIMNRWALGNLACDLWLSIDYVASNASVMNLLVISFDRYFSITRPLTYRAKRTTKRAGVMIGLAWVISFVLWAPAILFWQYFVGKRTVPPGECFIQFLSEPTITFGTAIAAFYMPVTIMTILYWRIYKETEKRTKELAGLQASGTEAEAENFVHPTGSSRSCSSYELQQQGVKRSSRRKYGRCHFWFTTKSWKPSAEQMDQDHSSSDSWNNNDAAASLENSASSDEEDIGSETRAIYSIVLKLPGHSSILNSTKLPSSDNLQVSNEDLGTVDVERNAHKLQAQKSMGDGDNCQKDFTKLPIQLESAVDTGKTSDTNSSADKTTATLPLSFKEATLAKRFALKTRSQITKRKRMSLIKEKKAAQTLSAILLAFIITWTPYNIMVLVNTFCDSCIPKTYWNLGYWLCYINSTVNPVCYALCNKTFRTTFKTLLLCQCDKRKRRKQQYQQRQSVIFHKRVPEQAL

D(1A) dopamine receptor = D(1A) dopamine receptor (Rattus norvegicus, UniProt P18901)
Galanin peptides = Galanin peptides (Rattus norvegicus, UniProt P10683)
Chain of Galanin peptides (P10683 33-61 limits assumed): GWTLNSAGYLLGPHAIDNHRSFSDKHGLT

[17] = target: Glutamate receptor ionotropic, NMDA 1 (Rattus norvegicus, UniProt P35439)
[18] = target: Glycine amidinotransferase, mitochondrial (Rattus norvegicus, UniProt P50442)
Histamine H1 receptor = Histamine H1 receptor (Rattus norvegicus, UniProt P31390)
Hrh3 protein = Hrh3 protein (Rattus norvegicus, UniProt Q5PPG3)
[19] = target: Nicotinic acetylcholine receptor (Rattus leucopus, UniProt Q62594)
Chain of Nicotinic acetylcholine receptor (Q62594 whole entry): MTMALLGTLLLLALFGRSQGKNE

Substance-K receptor = Substance-K receptor (Rattus norvegicus, UniProt P16610)
Chain of Substance-K receptor (P16610 whole entry): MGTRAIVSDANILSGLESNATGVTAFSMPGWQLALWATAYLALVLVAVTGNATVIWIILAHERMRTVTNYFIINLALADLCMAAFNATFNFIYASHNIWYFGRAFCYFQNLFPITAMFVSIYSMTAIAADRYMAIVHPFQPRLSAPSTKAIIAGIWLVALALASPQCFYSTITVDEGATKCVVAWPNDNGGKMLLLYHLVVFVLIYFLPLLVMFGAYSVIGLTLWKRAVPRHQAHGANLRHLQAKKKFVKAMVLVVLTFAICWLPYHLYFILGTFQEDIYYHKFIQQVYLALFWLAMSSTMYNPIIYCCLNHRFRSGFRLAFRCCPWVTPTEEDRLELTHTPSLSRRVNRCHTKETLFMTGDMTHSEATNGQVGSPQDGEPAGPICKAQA

Neuromedin-K receptor = Neuromedin-K receptor (Mus musculus, UniProt P47937)
Pro-neuropeptide Y = Pro-neuropeptide Y (Rattus norvegicus, UniProt P07808)
Somatostatin = Somatostatin (Rattus norvegicus, UniProt P60042)
[20] = target: Rat vasopressin-neurophysin (Rattus norvegicus, UniProt Q6LEI5)
Chain of Rat vasopressin-neurophysin (Q6LEI5 whole entry): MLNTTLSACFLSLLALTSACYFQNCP

VIP peptides = VIP peptides (Rattus norvegicus, UniProt P01283)
Chain of VIP peptides (P01283 125-152 limits assumed): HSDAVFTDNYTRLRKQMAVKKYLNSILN

Measured: Ki

Chain of Adenosine receptor A2a (P30543 whole entry): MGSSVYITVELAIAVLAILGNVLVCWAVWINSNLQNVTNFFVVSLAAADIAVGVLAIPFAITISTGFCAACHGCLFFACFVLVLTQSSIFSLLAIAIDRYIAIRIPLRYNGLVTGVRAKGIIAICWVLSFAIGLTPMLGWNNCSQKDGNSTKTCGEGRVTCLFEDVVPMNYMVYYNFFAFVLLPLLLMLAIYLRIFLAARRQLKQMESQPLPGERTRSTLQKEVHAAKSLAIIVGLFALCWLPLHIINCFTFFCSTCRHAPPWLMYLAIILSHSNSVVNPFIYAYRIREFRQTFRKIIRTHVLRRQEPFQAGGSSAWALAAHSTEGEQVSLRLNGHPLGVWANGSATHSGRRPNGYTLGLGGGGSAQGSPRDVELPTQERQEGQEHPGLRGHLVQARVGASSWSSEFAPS

Cn1cc(C(=O)OCC2CCN(CCNS(C)(=O)=O)CC2)c2ccccc21 [GR 113808]
6.31 µM: [15]
7.94 µM: [3]
1 µM: [8]
> 10 µM: all other assays above
